Results: the supplement of paper PMC10307832

Each cell line was assayed with CC1=C(C(=NN1)C)CC2=C(C3=C(S2)N(C(=O)N(C3=O)C)CC(C)C)C(=O)N4C[C@@H](CO4)O + Cc1nc(NC(=O)N2CCC[C@H]2C(N)=O)sc1-c1ccnc(C(C)(C)C(F)(F)F)c1 [Alpelisib] (partner 2 µM) (assay: relative viability (nuclei count vs DMSO), 5 days (fraction); higher = more cells survive). Conditions: first compound 0.25 µM.
Method in brief: (§1)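 Relative viability divides the nuclei count in treated wells by that in vehicle wells. Lung cancer cell lines were seeded in 1536-well plates, dosed by pin tool the next day, and fixed and stained after 5 days in one step with final 0.05% Triton X-100, 1% formaldehyde and 1 ug/ml Hoechst. Dosing was a single drug or a fixed anchor-drug dose plus five library-drug doses (not always all listed) in √10 steps, and values are medians of duplicate plates imaged at 4×.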

In the case of NCI-H1437, the relative viability is reported as 1.06.

The cell lines below were run with Cc1ccccc1C(C(=O)NC1CCCCC1)N(C(=O)Cn1ccnc1C)c1cccc(F)c1 [IDH-C35] + CC(=O)Nc1cccc(-n2c(=O)n(C3CC3)c(=O)c3c(Nc4ccc(I)cc4F)n(C)c(=O)c(C)c32)c1 [Trametinib] (partner 0.02 µM) in the same assay as above. Conditions: first compound 0.08 µM.
Method in brief: as §1

Compared with LOU-NH91, NCI-H2405 is lower in relative viability: 0.804 for the first, 0.66 for the second.

Compared with HOP-62, HCC-44 is higher in relative viability: 0.395 for the first, 1.01 for the second.

First: LU99A
Second: BEN
The relative viability of the first is lower: 0.527 for the first, 0.954 for the second.

Compared with HARA, NCI-H322M is lower in relative viability: 0.562 for the first, 0.451 for the second.

First: LCLC-97TM1
Second: NCI-H2009
The relative viability of the first is lower: 0.183 for the first, 0.29 for the second.

Compared with A-427, NCI-H441 is lower in relative viability: 0.791 for the first, 0.435 for the second.

Compared with NCI-H661, NCI-H1734 is higher in relative viability: 0.592 for the first, 0.656 for the second.

First: NCI-H460
Second: NCI-H2347
The relative viability of the first is lower: 0.165 for the first, 0.342 for the second.

Compared with SK-LU-1, NCI-H1395 is higher in relative viability: 0.454 for the first, 1.12 for the second.

Going from 201T to NCI-H1915, the relative viability falls from 0.727 to 0.316.

Compared with HCC-827, LXF-289 is higher in relative viability: 0.525 for the first, 0.701 for the second.

First: NCI-H23
Second: NCI-H647
The relative viability of the first is lower: 0.347 for the first, 0.488 for the second.

First: CAL-12T
Second: NCI-H1651
The relative viability of the first is lower: 0.389 for the first, 0.856 for the second.

Compared with EPLC-272H, NCI-H2228 is higher in relative viability: 0.259 for the first, 0.456 for the second.

First: NCI-H1792
Second: NCI-H1355
The relative viability of the first is lower: 0.393 for the first, 0.453 for the second.

Going from NCI-H3122 to NCI-H1437, the relative viability rises from 0.22 to 0.514.

Same assay, conditions: first compound 0.253 µM

Going from LOU-NH91 to NCI-H2405, the relative viability falls from 0.785 to 0.679.

Compared with HOP-62, HCC-44 is higher in relative viability: 0.353 for the first, 1.04 for the second.

Compared with LU99A, BEN is higher in relative viability: 0.643 for the first, 1.04 for the second.

Compared with HARA, NCI-H322M is lower in relative viability: 0.649 for the first, 0.485 for the second.

Going from LCLC-97TM1 to NCI-H2009, the relative viability rises from 0.2 to 0.308.

First: A-427
Second: NCI-H441
The relative viability of the first is higher: 0.784 for the first, 0.415 for the second.

Going from NCI-H661 to NCI-H1734, the relative viability rises from 0.575 to 0.811.

Compared with NCI-H460, NCI-H2347 is higher in relative viability: 0.133 for the first, 0.281 for the second.

Compared with SK-LU-1, NCI-H1395 is higher in relative viability: 0.489 for the first, 1.05 for the second.

First: 201T
Second: NCI-H1915
The relative viability of the first is higher: 0.7 for the first, 0.315 for the second.

Compared with HCC-827, LXF-289 is higher in relative viability: 0.583 for the first, 0.628 for the second.

Compared with NCI-H23, NCI-H647 is lower in relative viability: 0.456 for the first, 0.378 for the second.

Compared with CAL-12T, NCI-H1651 is higher in relative viability: 0.434 for the first, 0.899 for the second.

Going from EPLC-272H to NCI-H2228, the relative viability rises from 0.308 to 0.559.

First: NCI-H1792
Second: NCI-H1355
The relative viability of the first is lower: 0.338 for the first, 0.424 for the second.

Going from NCI-H3122 to NCI-H1437, the relative viability rises from 0.249 to 0.522.

Same assay, conditions: first compound 0.8 µM

First: LOU-NH91
Second: NCI-H2405
The relative viability of the first is higher: 0.781 for the first, 0.59 for the second.

Going from HOP-62 to HCC-44, the relative viability rises from 0.424 to 1.09.

First: LU99A
Second: BEN
The relative viability of the first is lower: 0.56 for the first, 1.02 for the second.

First: HARA
Second: NCI-H322M
The relative viability of the first is higher: 0.601 for the first, 0.55 for the second.

First: LCLC-97TM1
Second: NCI-H2009
The relative viability of the first is lower: 0.21 for the first, 0.314 for the second.

First: A-427
Second: NCI-H441
The relative viability of the first is higher: 0.77 for the first, 0.5 for the second.

First: NCI-H661
Second: NCI-H1734
The relative viability of the first is lower: 0.548 for the first, 0.603 for the second.

Going from NCI-H460 to NCI-H2347, the relative viability rises from 0.176 to 0.323.

Going from SK-LU-1 to NCI-H1395, the relative viability rises from 0.507 to 1.05.

First: 201T
Second: NCI-H1915
The relative viability of the first is higher: 0.718 for the first, 0.275 for the second.

Going from HCC-827 to LXF-289, the relative viability rises from 0.462 to 0.643.

First: NCI-H23
Second: NCI-H647
The relative viability of the first is lower: 0.282 for the first, 0.444 for the second.

Going from CAL-12T to NCI-H1651, the relative viability rises from 0.371 to 0.838.

First: EPLC-272H
Second: NCI-H2228
The relative viability of the first is lower: 0.324 for the first, 0.458 for the second.

First: NCI-H1792
Second: NCI-H1355
The relative viability of the first is higher: 0.485 for the first, 0.398 for the second.

Compared with NCI-H3122, NCI-H1437 is higher in relative viability: 0.21 for the first, 0.534 for the second.

Same assay, conditions: first compound 2.53 µM

Going from LOU-NH91 to NCI-H2405, the relative viability falls from 0.742 to 0.58.

Compared with HOP-62, HCC-44 is higher in relative viability: 0.33 for the first, 1.14 for the second.

First: LU99A
Second: BEN
The relative viability of the first is lower: 0.527 for the first, 1.16 for the second.

Going from HARA to NCI-H322M, the relative viability falls from 0.56 to 0.488.

Compared with NCI-H2009, A-427 is higher in relative viability: 0.34 for the first, 0.722 for the second.

First: NCI-H441
Second: NCI-H661
The relative viability of the first is lower: 0.542 for the first, 0.557 for the second.

First: NCI-H1734
Second: NCI-H460
The relative viability of the first is higher: 0.661 for the first, 0.165 for the second.

Compared with NCI-H2347, SK-LU-1 is higher in relative viability: 0.28 for the first, 0.485 for the second.

First: NCI-H1395
Second: 201T
The relative viability of the first is higher: 0.903 for the first, 0.701 for the second.

Going from NCI-H1915 to HCC-827, the relative viability rises from 0.278 to 0.519.

Going from LXF-289 to NCI-H23, the relative viability falls from 0.676 to 0.392.

Compared with NCI-H647, CAL-12T is lower in relative viability: 0.473 for the first, 0.36 for the second.

First: NCI-H1651
Second: NCI-H2228
The relative viability of the first is higher: 0.858 for the first, 0.836 for the second.

First: NCI-H1792
Second: NCI-H1355
The relative viability of the first is higher: 0.405 for the first, 0.392 for the second.

First: NCI-H3122
Second: NCI-H1437
The relative viability of the first is lower: 0.236 for the first, 0.51 for the second.

Same assay, conditions: first compound 8 µM

Compared with LOU-NH91, NCI-H2405 is lower in relative viability: 0.803 for the first, 0.589 for the second.

Compared with HOP-62, HCC-44 is higher in relative viability: 0.384 for the first, 1.04 for the second.

Compared with LU99A, BEN is higher in relative viability: 0.524 for the first, 1.16 for the second.

Going from HARA to NCI-H322M, the relative viability falls from 0.76 to 0.507.

Compared with LCLC-97TM1, NCI-H2009 is higher in relative viability: 0.243 for the first, 0.288 for the second.

Compared with A-427, NCI-H441 is lower in relative viability: 0.705 for the first, 0.484 for the second.

Going from NCI-H661 to NCI-H1734, the relative viability rises from 0.561 to 0.616.

Going from NCI-H460 to NCI-H2347, the relative viability rises from 0.0866 to 0.283.

First: SK-LU-1
Second: NCI-H1395
The relative viability of the first is lower: 0.536 for the first, 0.919 for the second.

Compared with 201T, NCI-H1915 is lower in relative viability: 0.676 for the first, 0.276 for the second.

Compared with HCC-827, LXF-289 is higher in relative viability: 0.512 for the first, 0.668 for the second.

Compared with NCI-H23, NCI-H647 is higher in relative viability: 0.325 for the first, 0.47 for the second.

Compared with CAL-12T, NCI-H1651 is higher in relative viability: 0.354 for the first, 0.832 for the second.

Going from EPLC-272H to NCI-H2228, the relative viability rises from 0.257 to 0.546.

Compared with NCI-H1792, NCI-H1355 is lower in relative viability: 0.544 for the first, 0.423 for the second.

NCI-H3122 showed a relative viability of 0.212.
